Source: patent US20160324881A1, “Neurokinin-1 Receptor Antagonists For Use In A Method Of Prevention Of Cancer” (priority 2013, published 2016)
Read-outs that look alike come from different tables or passages of the source.

Tests used:
[1] = cited from earlier work
[2] = target: NK1 receptors (Homo sapiens, UniProt P25103); settings: versus other receptors such as serotonin, dopamine, corticosteroid; estimated; cited from earlier work
[3] = system: MDA-MB231 cells; test: Soft agar growth assay (Alamar Blue), MDA-MB231; type: cell-based; settings: Homo sapiens, MDA-MB-231, 264 h
Method: (§2) Aprepitant (Biorbit) and fosaprepitant (IVEMEND®, MSD) were dissolved at a concentration of 100 mM in 100% DMSO (aprepitant) or in 0.9% NaCl (fosaprepitant). Actinomycin D was used as reference compound.
(§3) Stock solutions were diluted covering the final concentration range between 0 and 200 μM. The appropriate solvent controls were performed in parallel.
(§4) Compounds dissolved in DMSO (aprepitant as well as Actinomycin D) were diluted in 8 semilog steps in DMSO to obtain a dilution series with the 1000 fold final concentration.
(§5) Fosaprepitant was diluted in 8 semilog steps in 0.9% NaCl to obtain a dilution series with the 1000 fold final concentration.
(§6) Cancer cells stemming from established cancer cell lines (A549, HCT116, MDA-MB231) were cultured in DMEM containing 10% FCS and Penicillin/Streptomycin.
(§7) For each cell line 96 well suspension cell culture plates were prepared. 100 μL of the soft agar bottom layer (0.6% final concentration in complete medium) was poured and left to solidify. […]
(§8) Next day, compounds were added into the inner wells of the plate. […] Finally, the assays were developed using Alamar Blue and upon 3-5 h of incubation at 37° C. fluorescence intensity was determined (excitation: 560 nm; emission: 590 nm). […]

[4] = system: A549 cells; test: Soft agar growth assay (Alamar Blue), A549; type: cell-based; settings: Homo sapiens
Method: as §2, §3, §4, §5, §6, §7, §8

[5] = system: A549 cells; test: Xenograft tumor model, preventive application, A549; settings: aprepitant 100 mg/kg p.o., fosaprepitant 60 mg/kg i.v., 1x daily from day -2
Method: (§9) The ability of fosaprepitant and aprepitant to prevent tumor formation in xenograft models for breast cancer, lung cancer and colon cancer was investigated.
(§10) Monolayer MDA-MB-231 cells, HCT-116 cells and A549 cells, respectively, were grown in DMEM+10% FCS. The cells were cultured in a humidified atmosphere of 90% air and 10% carbon dioxide at 37° C. Media was routinely changed every 3 days. Confluent cultures were split 1:3 to 1:3 every 3-4 days using Trypsin/EDTA and seeded at a density of approximately 3-4×10^6 cells/15 cm^2+25 mL medium.
(§11) Female BALB/c nude (CAnN.Cg-Foxn1^nu/Crl) Mice (Charles River GmbH, Sulzfeld, Germany) aged 4-5 weeks at delivery and weighing approximately 15-18 g were kept under optimum hygienic conditions, air-conditioned with 10-15 air changes per hour, and continually monitored environment with target ranges for temperature 22±3° C. and for relative humidity 30-70%, 12 hours artificial fluorescent light/12 hours dark. Maximum 4 animals were kept per individual ventilated cage (IVC) and fed with a diet consisting of M-Zucht (ssniff Spezialdiáten GmbH) and autoclaved community tab water.
(§12) After an acclimatization period of 4 days (day −2) application of fosaprepitant, aprepitant and vehicle was started: Fosaprepitant was administered intravenously (i.v.) once daily for 20 days, and aprepitant was administered per oral gavage (p.o.) once daily for 20 days. Fosaprepitant was dissolved in 0.9% NaCl and 0.9% NaCl was used analogous to fosaprepitant as control (vehicle 1). As aprepitant is not water-soluble, it was provided as a suspension of ground EMEND® tablets in OraPlus® (Paddock Laboratories, Minneapolis, USA; contains: purified water, microcrystalline cellulose, carboxymethylcellulose sodium, xanthan gum, flavouring, citric acid, sodium phosphate, simethicone, methylparaben, and potassium sorbate, pH 4.2) and OraPlus® was used analogous to aprepitant as control (vehicle 2).
(§13) In the following, animal weights were measured (balance: Mettler Toledo PB602-L). Primary tumor sizes were measured by callipering (manual calliper, OMC Fontana). Tumor sizes were calculated according to the formula W^2×L/2 (L=length and W=the perpendicular width of the tumor, L>W).
(§14) Animal behavior and welfare was observed daily and tumor growth was recorded every two days by calliper measurement over a period of 30 days.

[6] = system: brain tumors; settings: background report; cited from earlier work
[7] = system: MDA-MB-231 cells; test: Xenograft tumor model, preventive application, MDA-MB-231; settings: aprepitant 100 mg/kg p.o., fosaprepitant 60 mg/kg i.v., 1x daily from day -2
Method: as §9, §10, §11, §12, §13, §14

[8] = capsules; cited from earlier work
[9] = system: HCT116 cells; test: Soft agar growth assay (Alamar Blue), HCT116; type: cell-based; settings: Homo sapiens, HCT-116, 192 h
Method: as §2, §3, §4, §5, §6, §7, §8

[10] = system: MDA-MB-231 cells (triple negative tumor cells); test: Example 5: preventive treatment of xenografted nude mice (FIG. 4); type: in vivo; settings: MDA-MB-231 xenograft; fosaprepitant i.v. 60 mg/kg/d, aprepitant p.o. 100 mg/kg/d, once daily for 19 days from day -2
Method: (§1) After an acclimatization period, application of fosaprepitant, aprepitant and vehicle control was started (day −2): Fosaprepitant was administered intravenously (i.v.; 60 mg/kg/d) once daily for 19 days, and aprepitant was administered per oral gavage (p.o.; 100 mg/kg/d) once daily for 19 days. […] The tumor volume was measured and depicted as mm3 at the indicated time points.
as §1, with “FIG. 4: In vivo treatment of xenografted mice with fosaprepitant and aprepitant. After” for “After”

[11] = system: HCT-116 cells; test: Xenograft tumor model, preventive application, HCT116; settings: aprepitant 100 mg/kg p.o., fosaprepitant 60 mg/kg i.v., 1x daily from day -2
Method: as §9, §10, §11, §12, §13, §14

[12] = A549, 10 days after tumor cell inoculation
[13] = A549, 20 days after tumor cell inoculation
[14] = A549, 30 days after tumor cell inoculation
[15] = MDA-MB-231, 10 days after tumor cell inoculation
[16] = MDA-MB-231, 20 days after tumor cell inoculation
[17] = MDA-MB-231, 30 days after tumor cell inoculation
[18] = HCT116, 10 days after tumor cell inoculation
[19] = HCT116, 20 days after tumor cell inoculation
[20] = HCT116, 30 days after tumor cell inoculation

NK1 receptors, sequence (P25103 whole entry): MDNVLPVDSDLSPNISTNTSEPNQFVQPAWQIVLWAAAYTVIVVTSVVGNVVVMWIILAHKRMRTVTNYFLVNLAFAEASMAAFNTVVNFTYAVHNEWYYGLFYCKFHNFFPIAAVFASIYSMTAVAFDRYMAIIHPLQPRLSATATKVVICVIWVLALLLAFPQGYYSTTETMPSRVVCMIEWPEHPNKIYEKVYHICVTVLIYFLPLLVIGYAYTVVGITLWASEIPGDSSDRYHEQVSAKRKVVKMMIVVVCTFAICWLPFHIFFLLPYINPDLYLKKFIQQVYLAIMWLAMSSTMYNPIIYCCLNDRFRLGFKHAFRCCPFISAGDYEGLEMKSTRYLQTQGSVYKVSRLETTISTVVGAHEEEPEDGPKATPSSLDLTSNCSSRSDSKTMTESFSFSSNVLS

SMILES	water solubility [1]	selectivity of NK1 receptors compared to other enzyme transporter, ion channels [2]	IC50 ([3]; MDA-MB231 (breast), soft agar growth, incubation time 11 days, read-out: IC50) [µM]	IC50 ([4]; 192 h, A549 (lung), soft agar growth, incubation time 8 days, read-out: IC50) [µM]	Tumor volume (mean) [5, 12] [mm^3]	Tumor volume (mean) [5, 13] [mm^3]	Tumor volume (mean) [5, 14] [mm^3]	brain tumor growth [6]	Tumor volume (mean) [7, 15] [mm^3]	Tumor volume (mean) [7, 16] [mm^3]	Tumor volume (mean) [7, 17] [mm^3]	average oral bioavailability [8]	IC50 ([9]; HCT116 (colon), soft agar growth, incubation time 8 days, read-out: IC50) [µM]	Tumor growth on preventive application [10]	Tumor volume (mean) [11, 18] [mm^3]	Tumor volume (mean) [11, 19] [mm^3]	Tumor volume (mean) [11, 20] [mm^3]	IC50 [3] [µM]	IC50 ([4]; A549, 192 h) [µM]	IC50 [9] [µM]
C[C@@H](O[C@H]1OCCN(Cc2nc(=O)[nH][nH]2)[C@H]1c1ccc(F)cc1)c1cc(C(F)(F)F)cc(C(F)(F)F)c1 [Aprepitant]	virtually water-insoluble	at least 3000 times	17	3.6	<20	<20	<20	reduce brain tumor growth	<20	<20	<20	60-65%	3.4	reduced growth of triple negative tumor cells	<20	<20	<20			
C[C@@H](O[C@H]1OCCN(Cc2nc(O)n(P(=O)(O)O)n2)[C@H]1c1ccc(F)cc1)c1cc(C(F)(F)F)cc(C(F)(F)F)c1 [Fosaprepitant]	water-soluble				<20	<20	<20		<20	<20	<20			reduced growth of triple negative tumor cells	<20	<20	<20	36	1.7	3
